Experimental data from BindingDB's records for doi:10.1016/j.bmcl.2008.08.079 (Abbott Laboratories, 2008).

Tests used:
[1] = target: Serine/threonine-protein kinase pim-1 (Homo sapiens, UniProt P11309); test: Pim Kinase Assay; settings: pH 7.5; 22 °C
Experimental: (§1) Assays were conducted in 384-well v-bottom polypropylene plates. Test compound was mixed with Pim and biotinylated peptide substrate, followed by immediate initiation with [gamma-33 P]ATP. Reactions were quenched and transferred to 384-well streptavidin-coated plates. After incubation, radioactivity was counted on a TopCount Scintillation Plate Reader (Packard).

[2] = target: Serine/threonine-protein kinase pim-2 (Homo sapiens, UniProt Q9P1W9); test: Pim Kinase Assay; settings: pH 7.5; 22 °C
Serine/threonine-protein kinase pim-2, sequence (Q9P1W9 whole entry): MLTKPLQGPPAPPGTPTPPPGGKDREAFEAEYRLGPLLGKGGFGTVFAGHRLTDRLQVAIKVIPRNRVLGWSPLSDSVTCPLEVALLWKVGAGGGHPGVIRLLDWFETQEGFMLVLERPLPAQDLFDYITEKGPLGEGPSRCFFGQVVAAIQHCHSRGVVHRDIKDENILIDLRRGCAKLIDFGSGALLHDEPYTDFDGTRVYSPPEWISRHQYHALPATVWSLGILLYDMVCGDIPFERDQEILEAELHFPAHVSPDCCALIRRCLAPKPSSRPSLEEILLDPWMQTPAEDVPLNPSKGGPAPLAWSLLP
Experimental: as §1

Serine/threonine-protein kinase pim-1, sequence (P11309 whole entry): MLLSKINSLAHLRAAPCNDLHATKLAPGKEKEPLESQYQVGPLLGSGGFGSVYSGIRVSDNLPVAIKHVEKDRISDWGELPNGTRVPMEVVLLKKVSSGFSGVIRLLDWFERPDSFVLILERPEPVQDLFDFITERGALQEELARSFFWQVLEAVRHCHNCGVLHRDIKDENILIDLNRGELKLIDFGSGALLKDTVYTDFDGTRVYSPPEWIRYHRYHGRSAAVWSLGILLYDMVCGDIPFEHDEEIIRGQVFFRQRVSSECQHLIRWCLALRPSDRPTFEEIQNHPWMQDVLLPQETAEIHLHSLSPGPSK

Row | SMILES | Ki [1] | Ki [2]
1 | CC(C)n1c2noc(=O)c-2c(O)c2cc(F)c(Cl)cc21 [7-chloro-6-fluoro-9-(propan-2-yl)-1H,3H,4H,9H-quinolino[2,3-c][1,2]oxazole-3,4-dione] | 12.3 nM | 62.8 nM
2 | CCn1c2cc(Cl)c(F)cc2c(=O)c2c(=O)on(C)c21 [7-chloro-9-ethyl-6-fluoro-1-methyl-1H,3H,4H,9H-quinolino[2,3-c][1,2]oxazole-3,4-dione] | 50.1 nM | > 1420 nM
3 | CCn1c2noc(=O)c-2c(O)c2cc(O)c(Cl)cc21 [7-chloro-9-ethyl-6-hydroxy-1H,3H,4H,9H-quinolino[2,3-c][1,2]oxazole-3,4-dione] | – | 43.5 nM
4 | CCn1c2noc(=O)c-2c(O)c2cc(OC)c(Cl)cc21 [7-chloro-9-ethyl-6-methoxy-1H,3H,4H,9H-quinolino[2,3-c][1,2]oxazole-3,4-dione] | 2700 nM | > 1420 nM
5 | O=c1onc2n(Cc3ccccc3)c3cc(Cl)c(F)cc3c(O)c1-2 [9-benzyl-7-chloro-6-fluoro-1H,3H,4H,9H-quinolino[2,3-c][1,2]oxazole-3,4-dione] | 36.5 nM | 558 nM
6 | CCCCn1c2noc(=O)c-2c(O)c2cc(F)c(Cl)cc21 [9-butyl-7-chloro-6-fluoro-1H,3H,4H,9H-quinolino[2,3-c][1,2]oxazole-3,4-dione] | 15 nM | 165 nM
